Reference: ChEMBL document CHEMBL1153754, “1-Aryl-3,4-dihydroisoquinoline inhibitors of JNK3” (Bioorg Med Chem Lett, 2009)

How the values were obtained:
[1] = biological target: T1, Mitogen-activated protein kinase 10 (Homo sapiens, UniProt P53779); test: Inhibition of JNK3 by high throughput screening
[2] = biological target: T2, Mitogen-activated protein kinase 14 (Homo sapiens, UniProt Q16539); test: Inhibition of N-terminal GST-tagged p38alpha expressed in Escherichia coli by fluorescence anisotropy
[3] = biological target: T1, Mitogen-activated protein kinase 10; test: Inhibition of N-terminal His(6)-tagged truncated human JNK3 transfected in baculovirus expression system by fluorescence anisotropy
[4] = biological target: T2, Mitogen-activated protein kinase 14; test: Inhibition of histidine-tagged human recombinant p38alpha after 120 mins by TR-FRET assay
[5] = biological target: Tyrosine-protein kinase Lck (Homo sapiens, UniProt P06239)
[6] = biological target: Mitogen-activated protein kinase kinase kinase 11 (Homo sapiens, UniProt Q16584); test: Inhibition of MLK3
[7] = biological target: T3, Inhibitor of nuclear factor kappa-B kinase subunit beta (Homo sapiens, UniProt O14920); test: Inhibition of IKK-beta
T3 sequence (O14920 whole entry): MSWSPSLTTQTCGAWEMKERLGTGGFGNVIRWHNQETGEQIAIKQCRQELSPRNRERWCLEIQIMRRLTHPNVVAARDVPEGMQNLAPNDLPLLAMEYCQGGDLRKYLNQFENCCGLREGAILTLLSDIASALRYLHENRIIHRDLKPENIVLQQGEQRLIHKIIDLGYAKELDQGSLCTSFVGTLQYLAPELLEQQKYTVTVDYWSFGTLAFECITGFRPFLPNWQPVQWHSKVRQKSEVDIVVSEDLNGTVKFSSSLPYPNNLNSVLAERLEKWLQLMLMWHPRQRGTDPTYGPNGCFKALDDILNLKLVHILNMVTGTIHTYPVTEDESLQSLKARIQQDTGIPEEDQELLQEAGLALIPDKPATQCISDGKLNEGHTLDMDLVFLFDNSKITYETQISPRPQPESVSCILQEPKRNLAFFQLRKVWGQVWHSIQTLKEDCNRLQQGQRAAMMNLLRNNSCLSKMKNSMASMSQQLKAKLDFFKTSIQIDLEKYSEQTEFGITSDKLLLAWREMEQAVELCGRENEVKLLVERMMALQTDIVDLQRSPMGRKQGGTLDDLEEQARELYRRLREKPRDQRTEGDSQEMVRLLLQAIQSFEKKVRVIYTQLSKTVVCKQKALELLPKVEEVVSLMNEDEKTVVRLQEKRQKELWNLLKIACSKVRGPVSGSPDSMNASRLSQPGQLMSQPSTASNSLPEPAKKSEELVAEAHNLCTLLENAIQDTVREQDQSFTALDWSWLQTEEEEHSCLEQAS

[8] = biological target: Receptor tyrosine-protein kinase erbB-2 (Homo sapiens, UniProt P04626); test: Inhibition of ErbB2
[9] = biological target: Glycogen synthase kinase-3 beta (Homo sapiens, UniProt P49841); test: Inhibition of GSK3-beta
[10] = biological target: Macrophage colony-stimulating factor 1 receptor (Homo sapiens, UniProt P07333); test: Inhibition of c-Fms
[11] = biological target: Rho-associated protein kinase 1 (Homo sapiens, UniProt Q13464); test: Inhibition of ROCK1
[12] = biological target: Mitogen-activated protein kinase 1 (Homo sapiens, UniProt P28482); test: Inhibition of N-terminal GST-tagged human full length Erk2 by radiometric filter binding assay
[13] = biological target: T4, Mitogen-activated protein kinase 8 (Homo sapiens, UniProt P45983); test: Inhibition of N-terminal histidine-tagged human full length JNK1-alpha-1 by radiometric filter binding assay
[14] = biological target: Serine/threonine-protein kinase B-raf (Homo sapiens, UniProt P15056); test: Inhibition of B-Raf
[15] = biological target: Cyclin-dependent kinase 2 (Homo sapiens, UniProt P24941); test: Inhibition of CDK2
[16] = biological target: Mitogen-activated protein kinase 9 (Homo sapiens, UniProt P45984); test: Inhibition of N-terminal histidine-tagged human full length JNK2-alpha-2 by radiometric filter binding assay
[17] = biological target: T5, Inhibitor of nuclear factor kappa-B kinase subunit alpha (Homo sapiens, UniProt O15111); test: Inhibition of IKKalpha
T5 sequence (O15111 whole entry): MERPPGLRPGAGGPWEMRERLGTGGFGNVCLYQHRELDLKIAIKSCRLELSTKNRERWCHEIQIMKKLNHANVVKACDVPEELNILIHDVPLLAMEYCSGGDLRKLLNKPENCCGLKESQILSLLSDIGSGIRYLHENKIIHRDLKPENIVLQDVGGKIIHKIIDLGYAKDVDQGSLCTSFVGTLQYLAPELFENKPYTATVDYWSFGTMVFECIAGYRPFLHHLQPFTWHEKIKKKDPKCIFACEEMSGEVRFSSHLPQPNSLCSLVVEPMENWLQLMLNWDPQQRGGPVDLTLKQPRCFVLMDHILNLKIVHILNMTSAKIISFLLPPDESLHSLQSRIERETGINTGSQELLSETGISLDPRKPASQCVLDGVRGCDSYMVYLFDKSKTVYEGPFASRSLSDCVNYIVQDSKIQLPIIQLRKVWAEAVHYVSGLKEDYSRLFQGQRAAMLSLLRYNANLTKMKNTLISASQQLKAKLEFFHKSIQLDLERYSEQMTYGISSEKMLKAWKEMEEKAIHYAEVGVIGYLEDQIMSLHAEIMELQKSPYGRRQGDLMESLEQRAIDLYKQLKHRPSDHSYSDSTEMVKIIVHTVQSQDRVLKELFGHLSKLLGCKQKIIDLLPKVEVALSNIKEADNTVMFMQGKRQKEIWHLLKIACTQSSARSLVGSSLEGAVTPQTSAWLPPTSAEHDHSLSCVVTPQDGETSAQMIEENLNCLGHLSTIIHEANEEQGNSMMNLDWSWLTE

[18] = biological target: T1, Mitogen-activated protein kinase 10; test: Inhibition of N-terminal histidine-tagged human full length JNK3 by radiometric filter binding assay
[19] = biological target: Serine/threonine-protein kinase PLK1 (Homo sapiens, UniProt P53350); test: Inhibition of PLK1
[20] = biological target: T6, Serine/threonine-protein kinase Sgk1 (Homo sapiens, UniProt O00141); test: Inhibition of SGK1
T6 sequence (O00141 whole entry): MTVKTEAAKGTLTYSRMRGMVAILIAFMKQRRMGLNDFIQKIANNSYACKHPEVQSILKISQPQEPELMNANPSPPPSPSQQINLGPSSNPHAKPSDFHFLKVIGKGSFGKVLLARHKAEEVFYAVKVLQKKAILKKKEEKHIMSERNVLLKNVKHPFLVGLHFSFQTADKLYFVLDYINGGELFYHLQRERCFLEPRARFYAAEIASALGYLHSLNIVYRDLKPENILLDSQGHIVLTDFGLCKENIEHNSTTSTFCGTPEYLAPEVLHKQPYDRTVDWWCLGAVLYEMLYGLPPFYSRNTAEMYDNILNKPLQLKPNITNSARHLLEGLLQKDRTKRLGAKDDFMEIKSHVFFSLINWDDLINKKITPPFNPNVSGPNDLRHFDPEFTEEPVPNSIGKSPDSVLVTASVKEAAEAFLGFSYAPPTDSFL

[21] = biological target: T4, Mitogen-activated protein kinase 8; test: Inhibition of JNK1 by high throughput screening
[22] = biological target: T2, Mitogen-activated protein kinase 14; test: Inhibition of p38alpha by high throughput screening

T2 sequence (Q16539 whole entry, the tested form may be a part): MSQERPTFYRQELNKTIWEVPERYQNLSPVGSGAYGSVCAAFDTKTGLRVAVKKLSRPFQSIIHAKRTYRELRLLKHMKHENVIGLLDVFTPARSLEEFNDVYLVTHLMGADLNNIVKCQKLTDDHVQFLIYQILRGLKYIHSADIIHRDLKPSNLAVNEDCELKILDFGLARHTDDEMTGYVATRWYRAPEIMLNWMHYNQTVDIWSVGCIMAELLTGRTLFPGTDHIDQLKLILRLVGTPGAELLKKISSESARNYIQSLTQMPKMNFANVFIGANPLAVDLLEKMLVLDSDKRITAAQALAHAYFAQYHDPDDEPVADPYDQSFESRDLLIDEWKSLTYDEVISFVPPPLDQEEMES
T4 sequence (P45983 whole entry): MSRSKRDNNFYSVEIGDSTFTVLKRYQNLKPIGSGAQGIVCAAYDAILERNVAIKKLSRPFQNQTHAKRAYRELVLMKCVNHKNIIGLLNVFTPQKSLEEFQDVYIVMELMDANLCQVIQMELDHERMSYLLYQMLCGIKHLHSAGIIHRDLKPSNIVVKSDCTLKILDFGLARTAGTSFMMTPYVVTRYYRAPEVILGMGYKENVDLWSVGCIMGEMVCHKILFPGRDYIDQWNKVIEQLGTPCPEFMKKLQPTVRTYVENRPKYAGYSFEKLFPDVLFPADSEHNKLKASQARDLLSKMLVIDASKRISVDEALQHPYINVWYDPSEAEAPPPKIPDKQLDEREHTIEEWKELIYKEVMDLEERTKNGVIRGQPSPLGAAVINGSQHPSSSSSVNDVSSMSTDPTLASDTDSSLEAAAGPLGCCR
T1 sequence (P53779 whole entry): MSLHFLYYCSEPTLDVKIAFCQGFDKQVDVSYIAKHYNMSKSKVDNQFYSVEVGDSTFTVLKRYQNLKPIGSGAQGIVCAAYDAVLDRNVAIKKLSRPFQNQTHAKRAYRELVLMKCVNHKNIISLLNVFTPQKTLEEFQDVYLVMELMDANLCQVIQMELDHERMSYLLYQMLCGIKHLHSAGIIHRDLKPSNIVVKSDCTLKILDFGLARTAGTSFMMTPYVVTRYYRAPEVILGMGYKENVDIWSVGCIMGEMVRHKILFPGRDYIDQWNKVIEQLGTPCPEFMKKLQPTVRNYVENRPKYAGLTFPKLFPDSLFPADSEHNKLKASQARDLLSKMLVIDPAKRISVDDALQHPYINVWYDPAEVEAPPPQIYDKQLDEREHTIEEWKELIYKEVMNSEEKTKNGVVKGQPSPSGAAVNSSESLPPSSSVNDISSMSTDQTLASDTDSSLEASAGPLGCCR
Sequence of Mitogen-activated protein kinase 1 (P28482 whole entry): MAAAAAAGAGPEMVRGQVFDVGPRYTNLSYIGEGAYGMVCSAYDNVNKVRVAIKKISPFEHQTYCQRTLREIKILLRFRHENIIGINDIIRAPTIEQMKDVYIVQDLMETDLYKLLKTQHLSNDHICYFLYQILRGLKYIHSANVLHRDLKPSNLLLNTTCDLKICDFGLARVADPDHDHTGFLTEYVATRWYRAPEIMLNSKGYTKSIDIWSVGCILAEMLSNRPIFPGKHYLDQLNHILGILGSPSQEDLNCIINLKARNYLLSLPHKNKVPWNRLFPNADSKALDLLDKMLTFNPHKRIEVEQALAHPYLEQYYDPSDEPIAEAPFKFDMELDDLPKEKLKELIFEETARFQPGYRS
Sequence of Macrophage colony-stimulating factor 1 receptor (P07333 whole entry): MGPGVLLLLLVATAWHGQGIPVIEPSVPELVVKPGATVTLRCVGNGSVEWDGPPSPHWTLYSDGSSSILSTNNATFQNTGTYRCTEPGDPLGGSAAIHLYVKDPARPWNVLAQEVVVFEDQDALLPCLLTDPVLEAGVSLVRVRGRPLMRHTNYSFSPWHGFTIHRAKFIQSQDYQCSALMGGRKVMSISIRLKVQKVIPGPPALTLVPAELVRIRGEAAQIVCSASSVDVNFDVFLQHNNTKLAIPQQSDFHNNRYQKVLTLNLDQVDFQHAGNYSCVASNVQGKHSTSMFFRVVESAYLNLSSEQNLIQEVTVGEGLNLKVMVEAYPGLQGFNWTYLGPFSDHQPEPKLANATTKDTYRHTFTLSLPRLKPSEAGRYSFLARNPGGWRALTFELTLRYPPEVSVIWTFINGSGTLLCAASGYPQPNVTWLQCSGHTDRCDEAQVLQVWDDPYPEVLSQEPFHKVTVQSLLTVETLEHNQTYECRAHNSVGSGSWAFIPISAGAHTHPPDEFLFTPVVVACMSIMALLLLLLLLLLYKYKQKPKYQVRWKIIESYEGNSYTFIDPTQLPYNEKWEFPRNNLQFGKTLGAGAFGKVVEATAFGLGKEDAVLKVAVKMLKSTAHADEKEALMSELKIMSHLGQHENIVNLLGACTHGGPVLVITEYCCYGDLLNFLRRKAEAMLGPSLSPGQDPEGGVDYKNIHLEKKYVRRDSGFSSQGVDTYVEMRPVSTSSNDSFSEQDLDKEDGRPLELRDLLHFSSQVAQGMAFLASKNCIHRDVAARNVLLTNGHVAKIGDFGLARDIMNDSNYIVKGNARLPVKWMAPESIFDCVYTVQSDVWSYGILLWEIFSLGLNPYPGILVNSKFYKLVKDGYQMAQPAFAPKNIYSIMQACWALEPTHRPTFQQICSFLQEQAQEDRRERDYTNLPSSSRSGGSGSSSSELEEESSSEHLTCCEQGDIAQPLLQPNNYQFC
Sequence of Mitogen-activated protein kinase 9 (P45984 whole entry): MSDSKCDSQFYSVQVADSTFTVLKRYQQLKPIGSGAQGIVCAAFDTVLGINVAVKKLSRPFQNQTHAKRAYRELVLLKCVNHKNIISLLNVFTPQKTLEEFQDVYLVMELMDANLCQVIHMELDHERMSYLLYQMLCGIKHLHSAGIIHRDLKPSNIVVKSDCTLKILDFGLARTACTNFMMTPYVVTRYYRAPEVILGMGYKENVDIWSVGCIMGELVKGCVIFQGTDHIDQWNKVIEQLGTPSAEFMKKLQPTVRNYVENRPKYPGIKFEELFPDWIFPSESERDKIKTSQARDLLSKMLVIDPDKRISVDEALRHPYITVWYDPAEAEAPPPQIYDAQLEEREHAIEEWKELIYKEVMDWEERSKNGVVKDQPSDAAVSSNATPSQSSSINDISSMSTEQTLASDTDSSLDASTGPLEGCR
Sequence of Mitogen-activated protein kinase kinase kinase 11 (Q16584 whole entry): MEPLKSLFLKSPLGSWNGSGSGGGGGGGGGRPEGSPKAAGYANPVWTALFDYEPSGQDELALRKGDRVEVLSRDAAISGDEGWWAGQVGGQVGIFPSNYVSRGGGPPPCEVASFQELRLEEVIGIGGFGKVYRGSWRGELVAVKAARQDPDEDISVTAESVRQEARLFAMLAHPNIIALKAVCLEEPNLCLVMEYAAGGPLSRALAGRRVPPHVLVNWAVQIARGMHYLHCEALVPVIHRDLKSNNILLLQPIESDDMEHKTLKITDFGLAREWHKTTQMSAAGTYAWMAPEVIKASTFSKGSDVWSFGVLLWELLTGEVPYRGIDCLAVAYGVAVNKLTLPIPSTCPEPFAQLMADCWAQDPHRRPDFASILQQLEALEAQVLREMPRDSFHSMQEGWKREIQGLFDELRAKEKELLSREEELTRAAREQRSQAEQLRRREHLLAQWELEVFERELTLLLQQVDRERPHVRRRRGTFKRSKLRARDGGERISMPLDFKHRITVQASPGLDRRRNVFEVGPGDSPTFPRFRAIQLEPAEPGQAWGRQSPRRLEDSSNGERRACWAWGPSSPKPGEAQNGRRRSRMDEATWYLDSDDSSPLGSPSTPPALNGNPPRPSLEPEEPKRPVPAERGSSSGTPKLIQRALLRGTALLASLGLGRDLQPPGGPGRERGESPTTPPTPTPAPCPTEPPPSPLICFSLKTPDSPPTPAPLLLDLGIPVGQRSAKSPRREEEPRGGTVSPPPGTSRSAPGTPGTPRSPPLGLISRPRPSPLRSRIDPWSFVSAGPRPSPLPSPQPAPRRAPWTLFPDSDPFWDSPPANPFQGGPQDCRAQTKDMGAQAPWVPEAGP
Sequence of Serine/threonine-protein kinase B-raf (P15056 whole entry): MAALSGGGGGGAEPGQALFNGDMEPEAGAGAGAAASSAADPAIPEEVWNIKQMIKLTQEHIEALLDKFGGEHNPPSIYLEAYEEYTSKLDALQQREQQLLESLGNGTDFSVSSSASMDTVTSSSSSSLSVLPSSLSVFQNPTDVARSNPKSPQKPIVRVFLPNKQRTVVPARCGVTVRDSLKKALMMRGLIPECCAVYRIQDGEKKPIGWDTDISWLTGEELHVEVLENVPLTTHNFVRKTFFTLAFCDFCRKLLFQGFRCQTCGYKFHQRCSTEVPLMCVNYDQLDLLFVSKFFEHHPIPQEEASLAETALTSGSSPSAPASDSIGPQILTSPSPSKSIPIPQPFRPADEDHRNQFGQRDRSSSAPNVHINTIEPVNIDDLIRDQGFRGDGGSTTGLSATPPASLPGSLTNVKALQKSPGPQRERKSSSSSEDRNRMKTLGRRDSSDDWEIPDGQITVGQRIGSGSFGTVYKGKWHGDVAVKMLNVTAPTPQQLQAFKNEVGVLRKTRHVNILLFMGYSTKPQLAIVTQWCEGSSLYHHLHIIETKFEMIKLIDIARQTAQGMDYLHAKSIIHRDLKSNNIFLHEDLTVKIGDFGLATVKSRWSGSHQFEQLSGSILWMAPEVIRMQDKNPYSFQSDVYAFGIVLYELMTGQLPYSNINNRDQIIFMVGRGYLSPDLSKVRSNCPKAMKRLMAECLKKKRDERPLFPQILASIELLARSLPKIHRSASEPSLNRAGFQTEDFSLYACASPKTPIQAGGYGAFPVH

SMILES	IC50 [2] [µM]	IC50 [3] [µM]	IC50 [4] [µM]	also measured
COc1cc2c(cc1OC)C(c1cccc(Cl)c1)=NCC2				IC50 [1]: 10 µM
CCC1=NCCc2cc(OC)c(Cl)cc21	> 15.8	> 15.8		
COc1cc2c(cc1Cl)CCN=C2c1cccc(F)c1		> 15.8	> 15.8	
COc1cc2c(cc1Cl)C(c1cccc(F)c1)=NCC2	> 15.8	3.98		
COc1cc2c(cc1Cl)C(c1cccc(C)c1)=NCC2	> 15.8	2		
COc1cc2c(cc1Cl)C(c1cccc(Cl)c1)=NCC2	7.94	0.251		IC50 [5]: > 10 µM; IC50 [6]: > 10 µM; IC50 [7]: > 10 µM; IC50 [8]: > 10 µM; IC50 [9]: > 10 µM; IC50 [10]: > 10 µM; IC50 [11]: > 10 µM; IC50 [12]: > 100 µM; IC50 [13]: > 100 µM; IC50 [14]: > 10 µM; IC50 [15]: > 10 µM; IC50 [16]: 1.26 µM; IC50 [17]: > 10 µM; IC50 [18]: 0.126 µM; IC50 [19]: > 10 µM; IC50 [20]: > 10 µM
COc1cc2c(cc1Cl)C(c1cccc(Br)c1)=NCC2	12.6	0.398		
Clc1cccc(C2=NCCc3ccccc32)c1	> 15.8	> 15.8		
COc1cc2c(cc1OC)C(c1ccc(Cl)cc1)=NCC2	> 15.8	> 15.8		
COc1cc2c(cc1Cl)C(c1ccccc1)=NCC2	> 15.8	6.31		
COc1cc2c(cc1Cl)CCN=C2c1ccccc1		> 15.8	> 15.8	
COc1cc2c(cc1Cl)CCN=C2c1cccc(Br)c1		10	> 15.8	
COc1cc2c(cc1Cl)C(c1ccc(Cl)c(Cl)c1)=NCC2	7.94	0.316		IC50 [6]: > 10 µM; IC50 [7]: > 10 µM; IC50 [8]: > 10 µM; IC50 [9]: > 10 µM; IC50 [10]: > 10 µM; IC50 [11]: > 10 µM; IC50 [12]: > 100 µM; IC50 [13]: 100 µM; IC50 [14]: > 10 µM; IC50 [15]: > 10 µM; IC50 [16]: 0.794 µM; IC50 [17]: > 10 µM; IC50 [18]: 0.0501 µM; IC50 [19]: > 10 µM; IC50 [20]: > 10 µM
COc1cccc(C2=NCCc3cc(OC)c(OC)cc32)c1	> 15.8	> 15.8		
COc1cc2c(cc1Cl)CCN=C2c1ccc(Cl)c(Cl)c1		15.8	> 15.8	
COc1cc2c(cc1Cl)C(c1ccc(F)cc1)=NCC2	> 15.8	5.01		
COc1cc2c(cc1Cl)CCN=C2c1ccc(F)cc1		> 15.8	> 15.8	
COc1cc2c(cc1OC)C(c1ccc(Cl)c(Cl)c1)=NCC2	> 15.8	6.31		
COc1cc2c(cc1Cl)C(Cc1ccccc1)=NCC2	> 15.8	> 15.8		
COc1cc2c(cc1Cl)C(c1ccc3ccccc3c1)=NCC2	> 15.8	1		
COc1cc2c(cc1Cl)CCN=C2c1ccc2ccccc2c1		> 15.8	> 15.8	
O=C(NC1CCNCC1)c1cccc(-c2n[nH]c3cc(Nc4ccccc4Cl)ccc23)c1				IC50 [21]: 0.0794 µM; IC50 [22]: 0.00398 µM; IC50 [1]: 0.00126 µM
COc1cc2c(cc1Cl)CCN=C2c1cccc(Cl)c1		12.6	> 15.8	
COc1cc2c(cc1Cl)C(c1cccc(Cl)c1F)=NCC2	12.6	0.631		
COc1cc2c(cc1OC)C(c1ccccc1)=NCC2		> 15.8	> 15.8	
